Assay results taken from US20120232070A1, “Use of Indole Derivatives as Nurr-1 Activators for the Application Thereof as a Medicament for the Treatment of Parkinson's Disease” (Laboratoires Fournier SA, priority 2009, published 2012).

Legend:
[1] = molecular target: hNurr1_RXRγFL (NURR1/RXRγ heterodimer) (Homo sapiens, UniProt P43354+P48443); experiment: Transactivation assay in Cos-7 cells, NURR-1-Gal4 / RXRγ, luciferase reporter; format: cell-based; details: for Emax: COS-7, read-out: hNurr1_RXRγFL Eff (%), efficacy in % relative to the reference XCT0135908 at 2·10^−5 M (=100%); for EC50: Cos-7 cells, overnight incubation
hNurr1_RXRγFL (NURR1/RXRγ heterodimer), sequence (P43354 328-598): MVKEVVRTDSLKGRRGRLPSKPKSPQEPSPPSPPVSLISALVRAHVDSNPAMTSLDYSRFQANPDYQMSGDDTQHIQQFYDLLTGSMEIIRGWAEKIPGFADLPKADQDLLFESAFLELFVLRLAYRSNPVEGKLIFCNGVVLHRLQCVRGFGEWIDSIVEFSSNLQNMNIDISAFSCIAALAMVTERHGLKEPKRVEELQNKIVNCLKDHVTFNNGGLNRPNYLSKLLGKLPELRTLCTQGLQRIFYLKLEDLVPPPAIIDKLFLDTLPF
hNurr1_RXRγFL (NURR1/RXRγ heterodimer), sequence (P48443 whole entry, the tested form may be a part): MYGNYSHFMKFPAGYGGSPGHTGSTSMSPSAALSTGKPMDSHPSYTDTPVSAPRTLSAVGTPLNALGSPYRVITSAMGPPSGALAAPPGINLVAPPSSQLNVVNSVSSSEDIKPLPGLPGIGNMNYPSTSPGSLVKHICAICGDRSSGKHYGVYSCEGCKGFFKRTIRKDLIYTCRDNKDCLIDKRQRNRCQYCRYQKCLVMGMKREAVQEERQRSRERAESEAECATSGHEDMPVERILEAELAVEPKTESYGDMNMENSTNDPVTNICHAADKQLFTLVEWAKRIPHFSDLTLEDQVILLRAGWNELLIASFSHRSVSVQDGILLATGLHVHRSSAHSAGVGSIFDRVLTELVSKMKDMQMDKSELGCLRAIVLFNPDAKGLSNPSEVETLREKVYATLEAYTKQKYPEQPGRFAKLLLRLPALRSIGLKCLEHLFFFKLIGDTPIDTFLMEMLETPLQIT
Outline: (§1)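 Cos-7 cells co-transfected with human NURR-1-Gal4 chimera, human RXRα or RXRγ, and 5Gal4pGL3-TK-Luc reporter; compounds added at 10^−4 to 3·10^−10 M final, overnight incubation, luciferase read. Induction over each heterodimer's baseline expressed as % of reference RXR agonist XCT0135908 (2·10^−5 M) taken as 100%.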

[2] = molecular target: hNurr1_RXRαFL (NURR1/RXRα heterodimer) (Homo sapiens, UniProt P19793+P43354); experiment: Transactivation assay in Cos-7 cells, NURR-1-Gal4 / RXRα, luciferase reporter; format: cell-based; details: for Emax: COS-7, read-out: hNurr1_RXRαFL Eff (%), efficacy in % relative to the reference XCT0135908 at 2·10^−5 M (=100%); for EC50: Cos-7 cells, overnight incubation
hNurr1_RXRαFL (NURR1/RXRα heterodimer), sequence (P19793 whole entry, the tested form may be a part): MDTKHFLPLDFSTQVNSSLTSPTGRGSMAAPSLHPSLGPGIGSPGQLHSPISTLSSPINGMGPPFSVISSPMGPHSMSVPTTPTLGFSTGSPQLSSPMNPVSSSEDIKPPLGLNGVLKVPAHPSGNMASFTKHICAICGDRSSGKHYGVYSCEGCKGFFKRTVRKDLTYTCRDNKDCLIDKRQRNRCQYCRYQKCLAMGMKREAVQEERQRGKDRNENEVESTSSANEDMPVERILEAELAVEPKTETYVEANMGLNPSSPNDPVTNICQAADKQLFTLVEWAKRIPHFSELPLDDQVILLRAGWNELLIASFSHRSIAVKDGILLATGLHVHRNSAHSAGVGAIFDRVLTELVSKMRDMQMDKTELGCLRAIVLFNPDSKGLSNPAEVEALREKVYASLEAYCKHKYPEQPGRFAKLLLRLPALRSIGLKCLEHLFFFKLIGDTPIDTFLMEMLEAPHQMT
hNurr1_RXRαFL (NURR1/RXRα heterodimer), sequence (P43354 328-598): as the sequence (P43354 328-598) above
Outline: as §1

[3] = efficacy in % relative to the reference XCT0135908 at 2·10^−5 M (=100%)

SMILES	Emax [1] [%]	EC50 [1] [nM]	Emax [2] [%]	EC50 [2] [nM]	hNurr1_RXRγFL Eff (%) [1, 3] [%]	hNurr1_RXRαFL Eff (%) [2, 3] [%]
CC(C)(C)c1cccc(S(=O)(=O)n2c(Cc3ccc(S(N)(=O)=O)cc3)cc3cc(C(F)(F)F)ccc32)c1 [Example 198, 4-[[1-[[3-(1,1-dimethylethyl)-phenyl]sulfonyl]-5-trifluoromethyl-1H-indol-2-yl]methyl]-benzenesulfonamide]	86	> 10000	84	7940	–	–
CC(C)c1ccc(S(=O)(=O)n2c(Cc3ccc(C(=O)O)c(O)c3)cc3cc(C(F)(F)F)ccc32)cc1 [Example 68, 2-hydroxy-4-[[1-[[4-(1-methylethyl)phenyl]sulfonyl]-5-(trifluoromethyl)-1H-indol-2-yl]methyl]-benzoic acid]	43	553	51	343	–	–
O=C(O)c1ccc(Cc2cc3cc(Cl)ccc3n2S(=O)(=O)c2cccc(Cl)c2)cc1 [Example 164, 4-[[1-[3-chloro-phenylsulfonyl]-5-(chloro)-1H-indol-2-yl]methyl]benzoic acid]	47	851	53	753	–	–
CN1CCOc2ccc(S(=O)(=O)n3c(Cc4ccc(F)c(C(=O)O)c4)cc4cc(C(F)(F)F)ccc43)cc21 [Example 212, 3-[[1-[[4-methyl-3,4-dihydro-2H-benzo[1,4]oxazin-6-yl]-sulfonyl]-5-trifluoromethyl-1H-indol-2-yl]methyl]-6-fluorobenzoic acid]	81	40	80	19	–	–
Cc1ccc2c(c1)cc(Cc1ccc(C(=O)O)cc1)n2S(=O)(=O)c1cccc(C(C)(C)C)c1 [Example 118, 4-[[1-[[3-(1,1-dimethylethyl)phenyl]sulfonyl]-5-(methyl)-1H-indol-2-yl]methyl]benzoic acid]	65	473	75	279	–	–
CCC(C)(C)c1ccc(S(=O)(=O)n2c(Cc3ccc(C(=O)O)cc3)cc3cc(Cl)ccc32)cc1 [Example 168, 4-[[5-chloro-1-[[4-(1,1-dimethylpropyl)phenyl]sulfonyl]-1H-indol-2-yl]methyl]benzoic acid]	52	501	48	422	–	–
CCCCCc1ccc(S(=O)(=O)n2c(Cc3ccc(C(=O)O)cc3)cc3cc(Cl)ccc32)cc1 [Example 170, 4-[[1-[4-pentyl-phenylsulfonyl]-5-(chloro)-1H-indol-2-yl]methyl]benzoic acid]	26	> 10000	42	1740	–	–
CC(C)c1cccc(S(=O)(=O)n2c(Cc3ccc(C(=O)O)cc3)cc3cc(C(F)(F)F)ccc32)c1 [Example 114, 4-[[1-[[3-(1-methylethyl)phenyl]sulfonyl]-5-(trifluoromethyl)-1H-indol-2-yl]methyl]benzoic acid]	–	145	–	63	76	109
COC(=O)c1ccc(Cc2cc3cc(C(C)(C)C)ccc3n2S(=O)(=O)c2cccc(C(C)(C)C)c2)cc1 [Example 108, 4-[[1-[[3-(1,1-dimethylethyl)phenyl]sulfonyl]-5-(tert-butyl)-1H-indol-2-yl]methyl]benzoic acid, methyl ester]	77	646	110	157	–	–
COC(=O)c1ccc(Cc2cc3cc(C(F)(F)F)c(F)cc3n2S(=O)(=O)c2cccc(C(C)(C)C)c2)cc1 [Example 110, 4-[[1-[[3-(1,1-dimethylethyl)phenyl]sulfonyl]-5-(trifluoro)-6-fluoro-1H-indol-2-yl]methyl]benzoic acid, methyl ester]	95	63	92	15	–	–
O=C(O)c1ccc(Cc2cc3cc(Cl)ccc3n2S(=O)(=O)c2ccc(OC(F)(F)F)cc2)cc1 [Example 156, 4-[[1-[4-trifluoromethoxy-phenylsulfonyl]-5-(chloro)-1H-indol-2-yl]methyl]benzoic acid]	43	1300	69	638	–	–
O=C(O)c1ccc(Cc2cc3cc(C(F)(F)F)ccc3n2S(=O)(=O)c2cccc(C3CC3)c2)cc1 [Example 59, 4-[1-(3-cyclopropyl-benzenesulfonyl)-5-trifluoromethyl-1H-indol-2-ylmethyl]-benzoic acid]	31	297	70	274	–	–
CCCc1ccc(S(=O)(=O)n2c(Cc3ccc(C(=O)O)cc3)cc3cc(C(F)(F)F)ccc32)cc1 [Example 139, 4-[[1-[4-propyl-phenylsulfonyl]-5-(trifluoromethyl)-1H-indol-2-yl]methyl]benzoic acid]	43	344	46	202	–	–
O=C(O)c1ccc(Cc2cc3cc(C(F)(F)F)ccc3n2S(=O)(=O)c2cccc(-c3ccc(Cl)cc3)c2)cc1 [Example 146, 4-[[1-[4′-chloro-biphenyl-3-sulfonyl]-5-(trifluoromethyl)-1H-indol-2-yl]methyl]benzoic acid]	24	1180	43	619	–	–
O=C(O)c1ccc(Cc2cc3cc(C(F)(F)F)ccc3n2S(=O)(=O)c2ccc(Oc3ccccc3)cc2)cc1 [Example 144, 4-[[1-[4-phenoxy-phenylsulfonyl]-5-(trifluoromethyl)-1H-indol-2-yl]methyl]benzoic acid]	19	> 10000	30	839	–	–
CN1CCOc2ccc(S(=O)(=O)n3c(Cc4ccc(C(=O)O)s4)cc4cc(C(F)(F)F)ccc43)cc21 [Example 73, 5-[[1-[[4-methyl-3,4-dihydro-2H-benzo[1,4]oxazin-6-yl]-sulfonyl]-5-trifluoromethyl-1H-indol-2-yl]methyl]-thiophene-2-carboxylic acid]	89	66	94	37	–	–
COC(=O)c1ccc(Cc2c(F)c3cc(C(F)(F)F)ccc3n2S(=O)(=O)c2cccc(C(C)(C)C)c2)cc1 [Example 148, 4-[[1-[[3-(1,1-dimethylethyl)phenyl]sulfonyl]-3-fluoro-5-(trifluoromethyl)-1H-indol-2-yl]methyl]-benzoic acid, methyl ester]	101	121	119	62	–	–
O=C(O)c1ccc(Cc2cc3cc(Cl)ccc3n2S(=O)(=O)c2ccc3c(c2)OCCO3)s1 [Example 77, 5-[[5-chloro-1-[(2,3-dihydro-benzo[1,4]dioxin-6-yl)sulfonyl]-1H-indol-2-yl]methyl]-thiophene-2-carboxylic acid]	38	457	74	224	–	–
O=C(O)c1ccc(Cc2cc3cc(C(F)(F)F)ccc3n2S(=O)(=O)c2ccc3c(c2)OCCO3)cc1 [Example 22, 4-[[1-[(2,3-dihydro-1,4-benzodioxin-6-yl)sulfonyl]-5-(trifluoromethyl)-1H-indol-2-yl]methyl]benzoic acid]	43	346	45	207	–	–
CC(C)(C)c1cccc(S(=O)(=O)n2c(Cc3ccc(CNS(C)(=O)=O)cc3)cc3cc(C(F)(F)F)ccc32)c1 [Example 227, N-[4-[[1-[[3-(1,1-dimethylethyl)phenyl]sulfonyl]-5-(trifluoromethyl)-1H-indol-2-yl]methyl]benzyl]-methanesulfonamide]	86	316	73	219	–	–
CC(C)c1ccc(S(=O)(=O)n2c(Cc3ccc(C(=O)O)c(O)c3)cc3cc(Cl)ccc32)cc1 [Example 99, 4-[[5-chloro-1-[[4-(1-methylethyl)phenyl]sulfonyl]-1H-indol-2-yl]methyl]-2-hydroxybenzoic acid]	42	989	50	569	–	–
O=C(O)c1ccc(Cc2cc3cc(C(F)(F)F)ccc3n2S(=O)(=O)c2ccc(OC(F)(F)F)cc2)cc1 [Example 142, 4-[[1-[4-trifluoromethoxy-phenylsulfonyl]-5-(trifluoromethyl)-1H-indol-2-yl]methyl]benzoic acid]	19	816	38	459	–	–
O=C(O)c1ccc(Cc2cc3cc(C(F)(F)F)ccc3n2S(=O)(=O)c2ccc(Cl)cc2)cc1 [Example 136, 4-[[1-[4-chloro-phenylsulfonyl]-5-(trifluoromethyl)-1H-indol-2-yl]methyl]benzoic acid]	25	> 10000	35	275	–	–
O=C(O)c1ccc(Cc2cc3cc(Cl)ccc3n2S(=O)(=O)c2ccc(Oc3ccccc3)nc2)cc1 [Example 175, 4-[[5-chloro-1-[(6-phenoxy-3-pyridinyl)sulfonyl]-1H-indol-2-yl]methyl]benzoic acid]	14	> 10000	38	331	–	–
O=C(O)c1ccc(F)c(Cc2cc3cc(C(F)(F)F)ccc3n2S(=O)(=O)c2ccc3c(c2)OCCO3)c1 [Example 214, 3-[[1-[(2,3-dihydro-benzo[1,4]dioxin-6-yl)sulfonyl]-5-trifluoromethyl-1H-indol-2-yl]methyl]-4-fluorobenzoic acid]	55	804	75	681	–	–
